How the values were obtained:
[1] = system: DAOY (medulloblastoma) cells; assay: CellTiter-Glo cell viability in DAOY cells; format: cell-based
Description: The activity of compound 12M11 was tested against a variety of cancer cell lines (see FIG. 2A), including those are routinely used in the literature such as HeLa, DAOY, MCF7, 435 and HCC38 cells. […] Just as for MEF cells, without wishing to be bound by any theory, it is believed that the resistance of DAOY cells to the OxyPhos inhibitor 12M11 can be attributed to their higher ATP levels per cell (FIG. 13B) combined with lower intrinsic OxyPhos activity as assessed by TMRE staining (FIG. 13C).

Phospho-S6 = assay: p-S6 western blot in Mut6 cells; format: cell-based, mouse
Description: Mut6 tumor cells and MEFs were treated by DMSO or 1 μM 12M11 for the indicated times. Cell lysate was prepared by RIPA buffer with phosphatase inhibitor (Thermo) and protease inhibitor (Roche). Antibodies are purchased from Santa Cruz (ATF4), Cell Signaling (pS6, S6, AMPK, and pAMPK), and Millipore (Gapdh).

Mut6 = assay: OCR and ECAR measurement (Seahorse) in Mut6; format: cell-based, mouse
Description: Oxygen consumption rate (OCR) and extracellular acidification rate (ECAR) were measured by Seahorse Bioscience instrument (XF24) with 80-90% confluent cells, according to the manufacturer's protocol. Briefly, cells were equilibrated for 1 hr at 37° C. incubator lacking CO2. Oxygen concentration and pH in media were measured during sequential treatment with 12M11, Oligomycin (1 μM), FCCP (1 μM), and Rotenone (200 nM). A minimum of three wells were utilized per condition to calculate OCR and ECAR.

MEF = assay: Change in ATP levels in MEF cells; format: cell-based, mouse; conditions: 2-6 hr
Description: Mut6 tumor cells or MEFs were plated into 96-well plates. One day later, Oligomyin (2 μM), Rotenone (200 nM), or 12M11 (1 μM) were added into each well and then ATP levels were measured by Cell-Titer Glo (Promega) after 2 hr, 4 hr, or 6 hr incubation. Each data is mean of six replicates with ± standard deviation.

CCc1n(CC(=O)O[C@@H]2C[C@H](C)CC[C@H]2C(C)C)c2ccccc2[n+]1C.[Cl-] [Compound 12M11] was tested, and the “sensitivity of DAOY cells” value [1] was “resistance”, the Phospho-S6 protein level (Phospho-S6) was “down regulation” and the “extracellular acidification rate (ECAR)” value (Mut6) was “dramatically increases”. For the same molecule, the “oxygen consumption rate (OCR)” value (Mut6) was “decrease” and the “ATP levels (% change from basal)” value (MEF) was “increase”.
